Results as given in ChEMBL document CHEMBL5465560, “Selectivity Literature for EUbOPEN Chemogenomic Library” (2024).
Blank lines part the entries; values can stand above or below the molecule they belong to.

Key:
[1] = target: Casein kinase I isoform gamma-3 (Homo sapiens) (UniProt Q9Y6M4); assay: Selectivity interaction (Kinase panel (Z-LYTE Assay)) EUB0001632a CSNK1G3; conditions: at 10 µM
[2] = target: Sphingosine kinase 1 (Homo sapiens) (UniProt Q9NYA1); assay: Selectivity interaction (Adapta Assay) EUB0001632a SPHK1; conditions: at 10 µM
Chain of Sphingosine kinase 1 (Homo sapiens) (Q9NYA1 whole entry): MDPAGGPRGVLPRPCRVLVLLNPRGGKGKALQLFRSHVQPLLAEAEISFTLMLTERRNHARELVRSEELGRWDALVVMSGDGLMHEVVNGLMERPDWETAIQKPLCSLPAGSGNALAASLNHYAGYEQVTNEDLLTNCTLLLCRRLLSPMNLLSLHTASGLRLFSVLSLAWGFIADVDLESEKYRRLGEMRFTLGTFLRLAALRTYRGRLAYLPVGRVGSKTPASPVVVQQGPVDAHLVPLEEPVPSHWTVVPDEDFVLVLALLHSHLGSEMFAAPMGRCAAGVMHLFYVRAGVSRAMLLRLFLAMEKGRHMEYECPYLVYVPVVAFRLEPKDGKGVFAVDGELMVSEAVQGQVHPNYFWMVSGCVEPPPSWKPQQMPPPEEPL

[3] = target: T1, Peripheral plasma membrane protein CASK (Homo sapiens) (UniProt O14936); assay: Selectivity interaction (KinomeScan (DiscoverX)) EUB0000607a CASK; conditions: at 10 µM
T1 sequence (whole entry): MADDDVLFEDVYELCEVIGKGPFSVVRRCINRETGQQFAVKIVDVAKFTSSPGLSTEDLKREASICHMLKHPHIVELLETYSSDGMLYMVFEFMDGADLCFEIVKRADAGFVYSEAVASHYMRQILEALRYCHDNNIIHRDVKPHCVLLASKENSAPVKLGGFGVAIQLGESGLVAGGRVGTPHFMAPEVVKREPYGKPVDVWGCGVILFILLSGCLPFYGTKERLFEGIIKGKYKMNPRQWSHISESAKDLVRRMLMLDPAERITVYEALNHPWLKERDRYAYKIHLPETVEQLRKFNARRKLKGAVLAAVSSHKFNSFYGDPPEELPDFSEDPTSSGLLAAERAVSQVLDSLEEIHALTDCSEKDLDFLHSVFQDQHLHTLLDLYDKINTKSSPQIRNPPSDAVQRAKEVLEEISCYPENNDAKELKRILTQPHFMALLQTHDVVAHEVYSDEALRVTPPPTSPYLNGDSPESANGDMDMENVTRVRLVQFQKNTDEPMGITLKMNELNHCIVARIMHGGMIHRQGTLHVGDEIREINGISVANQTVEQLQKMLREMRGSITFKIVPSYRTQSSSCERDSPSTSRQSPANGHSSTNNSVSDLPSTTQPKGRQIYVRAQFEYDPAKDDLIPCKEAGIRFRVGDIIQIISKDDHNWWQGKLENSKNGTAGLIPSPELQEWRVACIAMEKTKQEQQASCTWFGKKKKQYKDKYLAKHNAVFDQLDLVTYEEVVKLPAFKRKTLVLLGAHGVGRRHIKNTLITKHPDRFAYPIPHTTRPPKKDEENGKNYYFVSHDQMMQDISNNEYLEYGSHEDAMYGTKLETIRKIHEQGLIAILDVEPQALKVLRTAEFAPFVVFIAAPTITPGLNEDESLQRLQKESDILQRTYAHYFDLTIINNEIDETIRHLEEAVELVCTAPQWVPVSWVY

[4] = target: T2, Serine/threonine-protein kinase LATS2 (Homo sapiens) (UniProt Q9NRM7); conditions: at 10 µM
T2 sequence (whole entry): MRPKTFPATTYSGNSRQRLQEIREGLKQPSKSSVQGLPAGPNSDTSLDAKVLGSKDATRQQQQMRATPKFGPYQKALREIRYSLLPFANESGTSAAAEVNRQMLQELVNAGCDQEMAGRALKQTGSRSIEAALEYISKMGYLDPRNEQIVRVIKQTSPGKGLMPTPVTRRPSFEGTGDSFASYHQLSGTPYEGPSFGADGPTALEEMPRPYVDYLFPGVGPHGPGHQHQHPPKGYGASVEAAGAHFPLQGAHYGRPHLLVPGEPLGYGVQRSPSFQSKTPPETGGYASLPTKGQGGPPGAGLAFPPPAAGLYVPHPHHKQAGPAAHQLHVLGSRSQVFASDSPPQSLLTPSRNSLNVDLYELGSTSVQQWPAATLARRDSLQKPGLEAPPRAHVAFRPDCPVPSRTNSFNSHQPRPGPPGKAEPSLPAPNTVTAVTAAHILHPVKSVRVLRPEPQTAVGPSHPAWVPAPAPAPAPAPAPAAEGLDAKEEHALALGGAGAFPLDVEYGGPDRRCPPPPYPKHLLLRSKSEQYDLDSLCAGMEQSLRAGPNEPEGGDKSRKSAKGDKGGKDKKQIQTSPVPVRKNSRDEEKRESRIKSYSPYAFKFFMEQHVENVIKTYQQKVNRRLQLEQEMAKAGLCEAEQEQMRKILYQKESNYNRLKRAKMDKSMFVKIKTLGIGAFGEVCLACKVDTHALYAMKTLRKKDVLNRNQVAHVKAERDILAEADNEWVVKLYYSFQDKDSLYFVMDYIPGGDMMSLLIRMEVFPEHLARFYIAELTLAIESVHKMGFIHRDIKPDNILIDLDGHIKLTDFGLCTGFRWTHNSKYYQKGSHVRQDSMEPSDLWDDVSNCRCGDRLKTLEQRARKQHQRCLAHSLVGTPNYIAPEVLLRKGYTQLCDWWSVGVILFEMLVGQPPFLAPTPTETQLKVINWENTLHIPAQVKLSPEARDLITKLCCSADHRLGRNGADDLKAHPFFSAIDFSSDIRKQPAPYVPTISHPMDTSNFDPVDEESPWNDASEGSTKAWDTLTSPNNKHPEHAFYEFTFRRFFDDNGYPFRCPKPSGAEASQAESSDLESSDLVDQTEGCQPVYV

[5] = target: RAC-gamma serine/threonine-protein kinase (Homo sapiens, UniProt Q9Y243); assay: Selectivity interaction (KinomeScan (DiscoverX)) EUB0000045b AKT3
Chain of RAC-gamma serine/threonine-protein kinase (Q9Y243 whole entry): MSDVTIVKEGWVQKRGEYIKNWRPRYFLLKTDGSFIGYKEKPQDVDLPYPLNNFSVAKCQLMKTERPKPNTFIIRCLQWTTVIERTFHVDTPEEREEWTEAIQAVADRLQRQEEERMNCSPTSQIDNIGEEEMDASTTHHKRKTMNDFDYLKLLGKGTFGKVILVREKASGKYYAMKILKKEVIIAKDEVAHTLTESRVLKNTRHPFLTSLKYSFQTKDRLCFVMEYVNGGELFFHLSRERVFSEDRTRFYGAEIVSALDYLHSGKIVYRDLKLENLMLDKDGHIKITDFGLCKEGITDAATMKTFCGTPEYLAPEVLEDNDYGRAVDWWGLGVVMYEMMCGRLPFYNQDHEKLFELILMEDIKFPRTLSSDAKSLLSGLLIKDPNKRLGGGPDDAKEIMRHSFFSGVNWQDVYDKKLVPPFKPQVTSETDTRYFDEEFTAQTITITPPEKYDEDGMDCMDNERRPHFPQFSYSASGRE

[6] = target: T3, Serine/threonine-protein kinase 3 (Homo sapiens) (UniProt Q13188); assay: Selectivity interaction (KinomeScan (DiscoverX)) EUB0001619a STK3; conditions: at 1 µM
T3 sequence (whole entry): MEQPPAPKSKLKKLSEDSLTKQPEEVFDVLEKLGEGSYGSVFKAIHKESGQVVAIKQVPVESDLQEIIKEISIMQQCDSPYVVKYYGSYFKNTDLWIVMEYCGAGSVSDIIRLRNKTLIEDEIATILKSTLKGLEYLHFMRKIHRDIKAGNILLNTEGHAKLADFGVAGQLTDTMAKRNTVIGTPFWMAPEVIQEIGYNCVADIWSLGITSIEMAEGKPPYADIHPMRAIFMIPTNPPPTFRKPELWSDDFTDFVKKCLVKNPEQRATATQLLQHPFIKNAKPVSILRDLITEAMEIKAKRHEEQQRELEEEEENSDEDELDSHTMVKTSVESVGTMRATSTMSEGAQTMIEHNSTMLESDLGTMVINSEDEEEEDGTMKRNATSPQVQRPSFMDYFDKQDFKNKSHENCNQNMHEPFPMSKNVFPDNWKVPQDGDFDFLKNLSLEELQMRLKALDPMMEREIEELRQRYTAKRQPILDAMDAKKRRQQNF

[7] = target: Protein kinase C beta type (Homo sapiens, UniProt P05771); assay: Selectivity interaction (ActivX KiNativ screen (ex vivo kinase selectivity in human PBMCs)) EUB0001619a PRKCB; type: cell-based; conditions: PBMC, at 1 µM
Chain of Protein kinase C beta type (P05771 2-671 limits assumed): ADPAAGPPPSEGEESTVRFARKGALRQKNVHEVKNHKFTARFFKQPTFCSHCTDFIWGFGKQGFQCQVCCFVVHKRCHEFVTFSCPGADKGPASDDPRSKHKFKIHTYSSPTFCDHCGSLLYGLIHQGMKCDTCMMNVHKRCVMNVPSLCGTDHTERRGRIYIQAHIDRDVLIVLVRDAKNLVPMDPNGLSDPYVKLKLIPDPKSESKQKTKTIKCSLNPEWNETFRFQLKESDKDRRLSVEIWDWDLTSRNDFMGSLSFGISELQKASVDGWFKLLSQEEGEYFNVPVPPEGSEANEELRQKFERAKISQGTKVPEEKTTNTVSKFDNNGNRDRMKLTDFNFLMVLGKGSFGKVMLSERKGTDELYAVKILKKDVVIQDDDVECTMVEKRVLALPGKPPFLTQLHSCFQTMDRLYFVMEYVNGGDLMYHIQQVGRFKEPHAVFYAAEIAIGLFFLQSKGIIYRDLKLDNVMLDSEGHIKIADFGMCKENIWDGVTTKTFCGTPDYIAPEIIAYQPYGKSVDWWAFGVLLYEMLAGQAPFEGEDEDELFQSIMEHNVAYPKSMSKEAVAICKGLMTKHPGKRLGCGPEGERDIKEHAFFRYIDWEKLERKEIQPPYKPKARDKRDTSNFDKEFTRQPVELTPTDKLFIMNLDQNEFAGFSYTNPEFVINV

Chain of Casein kinase I isoform gamma-3 (Homo sapiens) (Q9Y6M4 whole entry, looked up, canonical isoform): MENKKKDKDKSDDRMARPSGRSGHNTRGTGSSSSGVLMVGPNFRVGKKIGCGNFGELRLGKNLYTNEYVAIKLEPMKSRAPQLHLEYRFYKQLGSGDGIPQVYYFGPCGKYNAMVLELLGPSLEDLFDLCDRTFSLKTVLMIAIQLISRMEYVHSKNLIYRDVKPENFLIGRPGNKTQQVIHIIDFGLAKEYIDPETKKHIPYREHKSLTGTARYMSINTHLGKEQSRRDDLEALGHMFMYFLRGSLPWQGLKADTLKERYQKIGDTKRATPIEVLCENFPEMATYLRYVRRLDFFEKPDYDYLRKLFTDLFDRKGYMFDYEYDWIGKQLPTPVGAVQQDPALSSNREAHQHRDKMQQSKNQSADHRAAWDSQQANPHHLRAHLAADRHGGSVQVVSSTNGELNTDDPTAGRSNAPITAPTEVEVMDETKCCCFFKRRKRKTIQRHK

- % of control [1]: 6.17%
- % of inhibition [2]: 53.7%
Compound: Cn1cc(-n2cnc3c(NCc4nc5cc(Cl)c(Cl)cc5[nH]4)nc(N4CCOCC4)nc32)cn1

Compound: CNC(=O)Nc1ccc(-c2nc(N3CC4CCC(C3)O4)c3cnn(C4CCC5(CC4)OCCO5)c3n2)cc1
- % of control [3]: 64%

- % of control [4]: 100%
Compound: CCN(CC)CCCCNc1ncc2cc(-c3cc(OC)cc(OC)c3)c(NC(=O)NC(C)(C)C)nc2n1

Compound: C=CC(=O)Nc1cc(-n2c(=O)ccc3cnc4ccc(-c5ccc(NS(C)(=O)=O)cc5)cc4c32)ccc1C
- % of control ([5]; at 1 µM): 75%
- % of control ([5]; at 10 µM): 100%

Compound: N#Cc1cccc(-c2c[nH]c3ncnc(N4CCOCC4)c23)c1
- % of control [6]: 1.8%
- % of inhibition [7]: 57%
